Data: the OligoGym collection
Where “and” joins values, the source holds several entries; their conditions need not be identical. Identical values can stand only once. After the bases stand the sugars from the 5' end (letter, count) and the backbone: PS all phosphorothioate, else s phosphorothioate and o phosphodiester by linkage. Methylation of C is not given here. k = constrained ethyl (cEt); d = 2'-deoxy (DNA)

Target: MALAT1
Conditions: ASO, A431, 0.005 µM

Sequence | target mRNA inhibition
TACTTAAATTACTAGC (sugars k3 d10 k3, PS) | 28%
ATCTTCACCACGAACT (sugars k3 d10 k3, PS) | 22%
TCAGACAAGATTCATG (sugars k3 d10 k3, PS) | 31%
AGTCAAGCTCCTGACA (sugars k3 d10 k3, PS) | 13%
ACTCCCCCCCGCCTCA (sugars k3 d10 k3, PS) | 26%
ATTGGAGATCAGCTTC (sugars k3 d10 k3, PS) | 52%
GTACTATCCCATCACT (sugars k3 d10 k3, PS) | 33%
ATACCTTAACATCTTG (sugars k3 d10 k3, PS) | 43%
ACAAGTCCTACAATTT (sugars k3 d10 k3, PS) | 31%
TTACAAAACGAATTCA (sugars k3 d10 k3, PS) | 10%
TTTTTGTTCGAGAAAT (sugars k3 d10 k3, PS) | -7%
ACCCACAAACTTGCCA (sugars k3 d10 k3, PS) | -2%
TACCGCACAGCTCGGG (sugars k3 d10 k3, PS) | 20%
AACAGCACAGCGGTAC (sugars k3 d10 k3, PS) | 2%
GCGCTTAAGAGGGCAG (sugars k3 d10 k3, PS) | 6%
AAACTAAATCATTGGG (sugars k3 d10 k3, PS) | 43%
AAGGCTCGATGGAAAA (sugars k3 d10 k3, PS) | 7%
AATTTATAGACCCCTG (sugars k3 d10 k3, PS) | 4%
TATAAGGTCAATAGTG (sugars k3 d10 k3, PS) | 38%
CCTTTACACCTCAGTA (sugars k3 d10 k3, PS) | 13%
GTTGAGAAGTGGCAAA (sugars k3 d10 k3, PS) | 20%
GATCCAAGCTACTGGC (sugars k3 d10 k3, PS) | 18%
CTTGTCTTAGCTTGTT (sugars k3 d10 k3, PS) | 71% and 61%

Sequence | target mRNA inhibition
CCAAGACAGCCACACG (sugars k3 d10 k3, PS) | 10%
TCACCGGAATTCGATC (sugars k3 d10 k3, PS) | -263%
ACACTGGTTCCTGGAA (sugars k3 d10 k3, PS) | 48%
ACTGATTTTAAGGTTG (sugars k3 d10 k3, PS) | 26%
TACTCCATGAAGAAGC (sugars k3 d10 k3, PS) | -26%
AATGCATTCTAATAGC (sugars k3 d10 k3, PS) | 17%
AGCATTGGAGATCAGC (sugars k3 d10 k3, PS) | 36%
CTCACAAAACCCCCGG (sugars k3 d10 k3, PS) | 18%
TAAATAAGGAGACAGC (sugars k3 d10 k3, PS) | 38%
CAAGATTCATGAGTAT (sugars k3 d10 k3, PS) | 34%
ACTTCCCCTTCTAGCT (sugars k3 d10 k3, PS) | 36%
CAGTCCTAGCTTCATC (sugars k3 d10 k3, PS) | 9%
ATATTGTGCTGTTACC (sugars k3 d10 k3, PS) | -9%
AATTTTGAGTATGCTG (sugars k3 d10 k3, PS) | 54% and 71%
CCTAGCTTCACCACCA (sugars k3 d10 k3, PS) | 33%
CATTCTAATAGCAGCG (sugars k3 d10 k3, PS) | 51% and 68%
GACACTTTCCTTGCCC (sugars k3 d10 k3, PS) | 48%
ATGACCCTACTGAAGA (sugars k3 d10 k3, PS) | 15%
AGCATTCCTTCGGATG (sugars k3 d10 k3, PS) | 14%
CTCAGTTACACATCCA (sugars k3 d10 k3, PS) | 70% and 94%
TACTATCCCATCACTG (sugars k3 d10 k3, PS) | 42%
TTAAATGACGCAATTC (sugars k3 d10 k3, PS) | 4%
CGCCTGCTACCTTCAT (sugars k3 d10 k3, PS) | 30%

Sequence | target mRNA inhibition
TCAAAATCCTGAATGG (sugars k3 d10 k3, PS) | 38%
ACAAGGATCCAAGCTA (sugars k3 d10 k3, PS) | -7%
TTCCGTTACGAAAGTC (sugars k3 d10 k3, PS) | 33%
AGGGATTTGAACCCCG (sugars k3 d10 k3, PS) | -3%
TGCCATGGTTGATATT (sugars k3 d10 k3, PS) | 37%
ACCAACCCCCAGTTCA (sugars k3 d10 k3, PS) | 28%
AGAGATACCTGTCTGA (sugars k3 d10 k3, PS) | 22%
CTGATAAACTCACTGC (sugars k3 d10 k3, PS) | 48%
ACTTTCCATTACGCAA (sugars k3 d10 k3, PS) | 9%
TATTTTAAACGGGTCA (sugars k3 d10 k3, PS) | 3%
CTTAGTTGGCATCAAG (sugars k3 d10 k3, PS) | 31%
ATGACGCAATTCTCCC (sugars k3 d10 k3, PS) | 15%
ATTCCCACCCAAAAGC (sugars k3 d10 k3, PS) | 5%
CTTATCTGTTAACAGC (sugars k3 d10 k3, PS) | 43%
CCATCATACTGCCAGG (sugars k3 d10 k3, PS) | 17%
CCAGCAAAATGTACTC (sugars k3 d10 k3, PS) | 46%
TAGCTTGGCCAAGTCT (sugars k3 d10 k3, PS) | 19%
GTCTGAAGAATACCAT (sugars k3 d10 k3, PS) | 47%
GAAATCCCCTAGGGAA (sugars k3 d10 k3, PS) | 6%
AGAGCATTGGAGATCA (sugars k3 d10 k3, PS) | 20%
GTTAGGTATGAGCTTC (sugars k3 d10 k3, PS) | 15%
GTGGTTATAGCTTGAC (sugars k3 d10 k3, PS) | 79% and 93%
AACTTCAACATTTGGC (sugars k3 d10 k3, PS) | 56%

Sequence | target mRNA inhibition
GCCCACAAGGATCCAA (sugars k3 d10 k3, PS) | 15%
CACCTTCCGCCGCCTC (sugars k3 d10 k3, PS) | 28%
ATCTGATTCTAACAGC (sugars k3 d10 k3, PS) | 40%
TATTTAAGAACTCCAC (sugars k3 d10 k3, PS) | 26%
CCTTATTTAGAGGGCC (sugars k3 d10 k3, PS) | 33%
ACTATAGCATCTGTGG (sugars k3 d10 k3, PS) | 9%
CGGAATTCGATCACCT (sugars k3 d10 k3, PS) | 19%
AACTGGGAATACTCTT (sugars k3 d10 k3, PS) | 22%
TTGAAACCGATTATGG (sugars k3 d10 k3, PS) | 42%
ATCTTAACTCAAAGTC (sugars k3 d10 k3, PS) | 39%
AAAACTCCCCCCCGCC (sugars k3 d10 k3, PS) | -4%
GGCCTACTCAAGCTCT (sugars k3 d10 k3, PS) | 14%
CTGCAATCATAAACTA (sugars k3 d10 k3, PS) | 10%
AGACAAGATTCATGAG (sugars k3 d10 k3, PS) | 50%
TGCAAGGTCTCATACA (sugars k3 d10 k3, PS) | 32%
TCTGAACCGGAGCAGG (sugars k3 d10 k3, PS) | 19%
CCGCACAGCTCGGGCG (sugars k3 d10 k3, PS) | 14%
TACATGTTCCCACCCA (sugars k3 d10 k3, PS) | 39%
GCCAACTAATTGCCAA (sugars k3 d10 k3, PS) | 33%
CATTTCTCCAATGGAC (sugars k3 d10 k3, PS) | 12%
CTATATAAGGTCAATA (sugars k3 d10 k3, PS) | 16%
GCTAAGATGCTAGCTT (sugars k3 d10 k3, PS) | 10%
TTGCCCCTCCCCTTTA (sugars k3 d10 k3, PS) | 42%

Sequence | target mRNA inhibition
AAAGACCTCGACACCA (sugars k3 d10 k3, PS) | 15%
CCCAACTGCTTGCAGT (sugars k3 d10 k3, PS) | 9%
CACCACGAACTGCTGC (sugars k3 d10 k3, PS) | 19%
AATACTCTTCCAAGGA (sugars k3 d10 k3, PS) | 15%
TTCCGCCGCCTCTTAA (sugars k3 d10 k3, PS) | 22%
CTGCAGGCTATTACCT (sugars k3 d10 k3, PS) | -6%
TCCCATCACTGAAGCC (sugars k3 d10 k3, PS) | 44%
GGTTTTAGTCACTGGA (sugars k3 d10 k3, PS) | 85% and 95%
AGCTGCAAACTTTAGA (sugars k3 d10 k3, PS) | 26%
TCACTGCAAGGTCTCA (sugars k3 d10 k3, PS) | 48%
GCCCGCACGGAAATTT (sugars k3 d10 k3, PS) | 23%
TTTACAGAAGTCTCGG (sugars k3 d10 k3, PS) | -31%
GTTTACCACCTTTTGA (sugars k3 d10 k3, PS) | 3%
CTGGTTAGGTATGAGC (sugars k3 d10 k3, PS) | 3%
GTTCAAGTGGCCTTTT (sugars k3 d10 k3, PS) | 22%
AAAACGAATTCAGGGT (sugars k3 d10 k3, PS) | 25%
CGTGTGGTTGCCAAGC (sugars k3 d10 k3, PS) | 45%
TGTGATAGTTCAGGGC (sugars k3 d10 k3, PS) | -12%
GAGTTGAGGCAAGTCC (sugars k3 d10 k3, PS) | 52%
CTGGTACACCCAGTGG (sugars k3 d10 k3, PS) | 4%
TTAAAAAGGCTCGATG (sugars k3 d10 k3, PS) | 21%
TTCCTTTCATAGAGCC (sugars k3 d10 k3, PS) | 70% and 88%
